Results taken from patent US20180289655A1, “Methods and Compositions for the Intravenous Administration of Fumarates for the Treatment of Neurological Diseases” (Biogen MA Inc., priority 2015, published 2018).
Structures can show the parent of a compound that is named as a salt.

Assays:
[1] = Solubility of DMF in 20% Captisol; assay type: physicochemical; conditions: aqueous with cosolvent or surfactant or cyclodextrin, thermodynamic from solid, room temperature (heated at 50° C., cooled, filtered)
Experimental: The preparations were heated at 50° C. for 5-10 min, followed by cooled to room temperature.

blood cell populations = assay: Complete blood count (CBC) with differential after IV dosing; assay type: in vivo, C57BL/6 mice
Experimental: Whole blood samples (250 μL) were collected in EDTA tubes at indicated time points after dosing, and were maintained at 4° C. until analysis for CBC with differential at Charles River Laboratories (analyzed within 24-36 hours from time of collection).
Statistical analyses on blood cell fractions were not completed due to the overall variability and low number of replicates for the samples in this pilot study.
A CBC with differential panel was performed at 10 minutes post-last dose via facial vein bleeding, and at 2 hours after the last dose, pharmacodynamic Nrf2 transcriptional responses were analyzed in tissues from the same animals. Histopathology was also performed on regions of the tail in a pilot toxicology study.

SOD1-G93A mice = assay: SOD1-G93A mouse model of ALS, oral DMF; assay type: in vivo; conditions: DMF p.o. 100 mg/kg daily
Experimental: Motor performance was assessed by rotarod at day 85, 100, and 115. Health was monitored by clinical observation and body weight. […] Body weight was modestly impacted by DMF.
Thirty-two female SOD1-G93A mice were purchased from Jackson Laboratories (Line 2726). All mice were transgene positive. Sixteen mice were used per dosing group. Dosing began at day 50-55. All procedures were conducted in accordance with the NIH Guide for the Care and Use of Laboratory Animals and were approved by the Biogen Idec Institutional Animal Care and Use Committee (IACUC Protocol No. 0408-2011).
Mice were dosed once daily either with vehicle or DMF. Dosing volume was 10 ml/kg, introduced by oral gavage.
Disease onset and progression in the SOD1-G93A was monitored by three approaches. All approaches were done in a blinded fashion. Body weight was recorded on a daily basis. Mice were also inspected on a daily basis for disease onset, as defined by leg tremor or decreased hind limb flexion upon tail lift. Mice were also assessed on an accelerating rotarod test at weeks 12, 14, and 16. For this test, mice were first acclimated to a rod rotating at 2 rpm for 300 seconds once a day for two days. For the actual test, mice are placed on rod accelerating from 2 to 40 rpm over 90 seconds. Upon reaching full speed, the test continues for an additional 30 seconds. Mice were tested three times per day and the longest time recorded. Mice that were unable to remain on the rod for 20 seconds were excluded from further testing.
Mice were determined to have reached endpoint criteria for humane euthanasia when then when they failure to right from either side within 15 seconds.
For rotarod and body weight, values were compared by two-way ANOVA. Body weight was further evaluated by break point analysis. Break point analysis identifies the inflection point of a curve, by completing a series of linear regression fits. The intersection of the curve fits for the ascending and descending slopes with the minimal residual error is defined as the break point. For each mouse, the breakpoint was determined. The two groups were then compared by Student's T-test. Differences in onset and survival were tested for using the Mantel-Cox log rank test. A further test with the Cox proportional hazards test incorporating littermate status was completed.

[2] = MMF exposure in plasma and tissues after DMF PO/IV or MMF IV (LC-MS/MS); assay type: in vivo, C57BL/6 mice
Experimental: Aliquots (25 μL) of either plasma or tissue homogenate samples were extracted by protein precipitation with acetonitrile containing 4C13-MMF as the internal standard. For tissue samples, aliquots of homogenization solution (plasma with 12.5 mg/mL of NaF) were added to the tissue samples. The tissue samples were homogenized at 6.5 m/s for 60 seconds on a Fast Prep Tissue Homogenizer prior to protein precipitation. Concentrations of MMF in plasma, brain, jejunum and kidney samples were determined using qualified LC-MS/MS assays in the respective matrices. Data collections and integrations were accomplished using an API 5500 triple quadrupole mass spectrometer with a turbo ion spray interface (AB Sciex, Foster City, Calif.), and Analyst software (version 1.6.1). The peak area ratios of MMF relative to its internal standard were used to construct a standard curve using a quadratic regression with a 1/x^2 weighting. The lower limits of quantitation (LLOQ) were 1 ng/mL for the three tissue assays and 10 ng/mL for the plasma assay, respectively. The performances of the assays were monitored by the precision and accuracy of the standards and quality control samples.
MMF exposure levels were evaluated 10 minutes and 2 hours after dosing, while pharmacodynamic transcriptional responses were analyzed at 2 hours post-dose.
At the 10-minute time point, 4 animals from each group were sacrificed, with plasma and tissues (brain, jejunum and kidney) collected to determine MMF exposure. Two hours after dosing, the remaining 4 animals were sacrificed, and plasma and tissues were collected. Tissue samples from the 2-hour time point were divided, with half of each sample used for MMF exposure analysis, and half for RNA extraction and qRT-PCR to evaluate the expression of Nrf2 target genes.
MMF exposure levels were evaluated 10 minutes and 2 hours after dosing, while transcriptional pharmacodynamic responses were analyzed at 2 and 6 hours post-dose. A complete blood count (CBC) with differential panel was performed at 10 minutes, 2 hours, and 6 hours post-dose.
Ten minutes after dosing, 4 animals from each group were sacrificed, and plasma and tissues (brain, kidney, jejunum and spleen) were collected to quantify MMF exposure levels, as well as whole blood to perform CBC. Two hours post-dose, another 4 animals from each group were sacrificed, and plasma, whole blood, and tissues were collected. Tissue samples from the 2-hour time point were split, with half of each sample used for MMF exposure analysis, and half for RNA extraction/qRT-PCR to evaluate the expression of Nrf2 target genes. Six hours after dosing, the last 4 animals from each group were sacrificed, and whole blood and tissues were collected.

[3] = Study 3, DMF IV 30 mg/kg once daily x5
[4] = Study 3, DMF IV 30 mg/kg once daily x5, vs vehicle

COC(=O)/C=C/C(=O)OC [DMF, dimethyl fumarate]
solubility [1]: 4110 µg/mL | Reduction in white blood cell counts (neutrophils, lymphocytes, monocytes, eosinophils, basophils) (blood cell populations; Study 2, single IV dose DMF 30 mg/kg or MMF 27.08 mg/kg, 2-hour time point): did not specifically coincide with DMF or MMF treatment | Effect on red blood cells, hemoglobin, hematocrit, mean corpuscular volume, platelets (blood cell populations; Study 2, single IV dose DMF 30 mg/kg or MMF 27.08 mg/kg, 10 minutes, 2 and 6 hours): no effect on red blood cells, hemoglobin, hematocrit, mean corpuscular volume, or platelets | Effect on red blood cells, hemoglobin, hematocrit, mean corpuscular volume, platelets (blood cell populations; [3]): no effects on red blood cells, hemoglobin, hematocrit, mean corpuscular volume, or platelets | White blood cells (blood cell populations; [3]): general reduction in white blood cells | Decrease in lymphocytes (blood cell populations; [4]): 38% | Decrease in monocytes (blood cell populations; [4]): 60% | Disease onset as assessed by limb splay (SOD1-G93A mice): did not significantly change onset | Survival (SOD1-G93A mice): did not prolong survival | Transition from weight gain to weight loss (breakpoint analysis) (SOD1-G93A mice; p<0.05): significantly delayed | Rotarod performance (SOD1-G93A mice; weeks 12, 14, 16): did not alter rotarod performance | MMF level in plasma ([2]; Study 1, IV DMF, 2 hours): no detectable MMF in plasma | MMF level in any tissue ([2]; Study 1, PO or IV DMF, 2 hours): no detectable MMF in any tissue | MMF level in plasma or any tissues ([2]; Study 2, 2 hours, DMF 30 mg/kg or MMF 27.08 mg/kg IV): no detectable MMF in plasma or in any tissues | MMF levels in kidney, jejunum and spleen, DMF versus MMF ([2]; Study 2, IV, 10 minutes): no significant differences were noted in MMF levels
